Measurements as given in article PMC7125190, “Native/citrullinated LL37-specific T-cells help autoantibody production in Systemic Lupus Erythematosus” (Scientific Reports, 2020).

Legend:
[1] = system: serum antibodies (anti-native LL37/anti-cit-LL37); test: ELISA for autoantibody detection in sera; assay type: binding, human; conditions: for Antibody reactivity of control disease sera compared to SLE: psoriasis, RA, SSc and UC sera
Method: (§1) Anti-native/cit-LL37, other antigen antibodies (anti-DNA and anti-RNA), and total anti-human IgG were measured by ELISA as described. Briefly, 96-well flat-bottom plates (Non-Binding surface polystyrene, Corning, USA) are coated with 2 μg/mL of native LL37/cit-LL37 or control proteins or human DNA or human RNA[9] or anti-human IgG antibody (Sigma) in carbonate buffer (0.1 M NaHCHO3, pH 9) for 2 hours (or over night) and washed four times with PBS 0.1% Tween-20. This washing buffer was used for washing at all steps. The blocking buffer containing 2% bovine serum albumin (BSA, Sigma) in PBS was used for at least 1 hour (or over night) to saturate unspecific binding sites. After washing, sera were diluted at various concentrations (usually 1:100 or 1:200) in PBS 2% BSA (cell culture supernatants were diluted 1:2, 1:4 or 1:10) followed by 1 hour incubation with a horseradish peroxidase–conjugated (HRP) goat anti-human IgG (Sigma-Aldrich), diluted 1:10,000 in PBS. The color was developed for 5 minutes with 3,3’,5,5’-tetramethylbenzidine (TMB) substrate (Sigma-Aldrich). The reaction was stopped by adding 50 μl of 2 N H2SO4, and absorbance determined at 450 nm with a reference wavelength of 540 nm. Anti-dsDNA in sera of lupus patients were detected by the standard clinical test Kallestad Crithidia luciliae Complete Kits for detection and semi-quantitation of autoantibodies to native DNA (nDNA) antigens by indirect fluorescence antibody (IFA) procedure. ELISA for detection of anti-tetanus antibodies (anti-TT) was from Abnova (Taiwan).

PBMCs [2] = test: LL37-specific T-cell help: autoantibodies in PBMC culture supernatants by ELISA; assay type: cell-based, human; conditions: for anti-LL37/anti-cit-LL37 antibodies in culture supernatants: SLE PBMCs, 7 days
Method: as §1
Peptide-MHC-tetramer staining of T-cell lines/clones and blood T-cells
Peptide-MHC-tetramers (Table S4) were from ProImmune, (UK), TC Metrix, (CH), Benaroya, (USA) and ImmunAware (Denmark). Staining was performed for 40 minutes at 37°C, followed by staining for CD4 (4°C, 20 minutes). Before flow cytometry-acquisition, cells were labelled with PercP-conjugated 7-AAD to exclude dead cells.
LL37 specific T-cell help for production of autoantibodies
We cultured patient PBMCs with LL37 or control antigens and low doses of hrIL-2 (added at day 6, 10U/mL), and we detected appearance of autoantibodies in the culture supernatants by ELISA at various time points (from 7-to 10 days and, when needed, after a second stimulation with autologous PBMCs and antigen). In parallel, we monitored appearance of markers typical of B-cells/plasma cells (CD20, CD27, CD38, CD138) in the CD3neg cells by flow cytometry.
Immunohistochemistry and laser scanner confocal microscopy (LSM)
We performed staining on […] paraffin or frozen sections of human lupus erythematosus skin specimens obtained from CHUV, Dept. of Dermatology. Staining with anti-cit-LL37 Mabs was performed using the antibodies Mab142 and Mab137 at 1:40 dilution, followed by incubation with a […] (Abcam). HRP and DAB (DAKO) were used to develop the color. Nuclear staining was performed with Mayer’s haematoxylin.
To visualize NETs, we seeded neutrophils on coverslips pre-treated with polylysine and stimulated them with various stimuli to induce release of the NETs. After 3 hours, cells were gently washed and stained with anti-CD15-PE or biotinylated polyclonal rabbit anti-LL37 antibodies (Innovagen), followed by addition of AlexaFluor 488-streptavidin. Frozen or paraffin-included SLE renal biopsies, obtained from Policlinico Umberto I, Rome, IT or CHUV Lausanne, CH, were stained, after saturation with blocking buffer (PBS, 0.05% tween 20, 4% BSA) for 1 hour at room temperature. Bopsies in paraffin were stained after de-paraffination in xilene (5 minutes, two times), followed by passages in: absolute ethanol (3 minutes), 95% ethanol in water (3 minutes), 80% ethanol in water (3 minutes), 70% ethanol in water (3 minutes), and antigen retrieval (5 minutes at […]

PBMCs [3] = test: IL-21 production in PBMC cultures (ELISA); assay type: cell-based, human; conditions: SLE (but not in psoriasis)
Source text: analyzed by flow-cytometry (after staining by BrdU-detection kit, BD Pharmingen). Before cloning, bulk-cultures were stimulated with autologous-irradiated PBMCs and peptide over night, and stained for CD3 and CD4 and with the “Cytokine secretion assays kits” (MACS, Miltenyi Biotec) to detect IL-2-, IFN-ɣ- and/or IL-17-secretion and CD38 as an activation marker, and sorted by a cell-sorter (MoFlo Astrios, Beckman Coulter). Dead cells were excluded by DAPI staining. Sorted activated CD4+CD3+ cells, secreting cytokines were cloned by limiting dilution in Terasaki plates (Nunc Microwell, Sigma-Aldrich) in the presence of allogeneic-irradiated (104) PBMCs activated by phytohaemagglutinin (1 µg/mL, PHA, Murex, 0.5 cells/well) and 100 U/mL of hrIL-2. Clones reactivity and HLA-restriction were analyzed using HLA-matched-homozigous B-LCLs, pulsed with […]
Measurement of cytokine production in primary T-cells and T-cell lines/clones Cytokines secretion was detected by ELISA (Quantikine; R&D Systems, Minneapolis, MN) for IL-4, IL-10, IL-17, IFN-ɣ, IL-22, IL-21, or by Th1/Th2 10-Plex and IL-17-Tissue Culture Kits (read by MSD Sector Imager 2400, Meso Scale Discovery, Gaithersburg, MD). Supernatants were harvested from primary cultures at day 3 (day 2 for T-cell lines/clones). Production of cytokines was also analyzed by flow cytometry after culture of PBMCs with LL37/LL37-peptides for 6-7 days. […]

[4] = eight SLE patients with T-cell follow-up, successful standard therapy
[5] = three SLE patients unresponsive to treatment
[6] = twenty-one SLE patients responding to treatment, 6-to-36 months

Substance	SLE patients with antibody reactivity ([1]; SLE sera, twenty-one (native LL37) and eighteen (cit-LL37) of 40) [%]	Antibody reactivity over time [1, 4]	Antibody reactivity of control disease sera compared to SLE [1]	Antibody reactivity over time [1, 5]	Antibody reactivity over time [1, 6]	anti-LL37/cit-LL37 antibody production (PBMCs [2]; PBMCs of psoriasis patients whose T-cells proliferate to LL37, and HD PBMCs)	anti-LL37/anti-cit-LL37 antibodies in culture supernatants (PBMCs [2])	anti-HNPs and anti-TT antibodies (PBMCs [2]; SLE cultures)	anti-DNA- and RNA-antibody reactivity (PBMCs [2]; SLE cultures, sequential stimulation with autologous PBMCs and native LL37)	IL-21 production (PBMCs [3])
LLGDFFRKSKEKIGKEFKRIVQRIKDFLRNLVPRTES [LL37, native LL37, antimicrobial peptide, 37 aa]	53	significantly declined	significantly weaker	increased	declined in parallel with SLEDAI reduction	did not lead to significant anti-LL37/cit-LL37 antibody production	became apparent in culture supernatants	did not increase	became also detectable	significant up-regulation
LLGDFFR(cit)KSKEKIGKEFKR(cit)IVQR(cit)IKDFLR(cit)NLVPR(cit)TES [cit-LL37, citrullinated LL37 (citrullinated at all five arginin positions)]	–	significantly declined	significantly weaker	increased	declined in parallel with SLEDAI reduction	–	became apparent in culture supernatants	did not increase	–	significant up-regulation
